Measured values as given in ChEMBL document CHEMBL1201862, “PubChem BioAssay data set” (2004).
Activity calls are given as the source filed them.

What was measured:
[1] = molecular target: T1, Nuclear receptor subfamily 0 group B member 1 (Homo sapiens, UniProt P51843); assay: Luminescence-based cell-based high throughput dose response assay for inhibitors of the orphan nuclear receptor subfamily 0, group B, member 1 (DAX1; NR0B1). [Related pubchem assays (depositor defined):AID504766, AID504790]; assay type: functional
T1 sequence (P51843 whole entry): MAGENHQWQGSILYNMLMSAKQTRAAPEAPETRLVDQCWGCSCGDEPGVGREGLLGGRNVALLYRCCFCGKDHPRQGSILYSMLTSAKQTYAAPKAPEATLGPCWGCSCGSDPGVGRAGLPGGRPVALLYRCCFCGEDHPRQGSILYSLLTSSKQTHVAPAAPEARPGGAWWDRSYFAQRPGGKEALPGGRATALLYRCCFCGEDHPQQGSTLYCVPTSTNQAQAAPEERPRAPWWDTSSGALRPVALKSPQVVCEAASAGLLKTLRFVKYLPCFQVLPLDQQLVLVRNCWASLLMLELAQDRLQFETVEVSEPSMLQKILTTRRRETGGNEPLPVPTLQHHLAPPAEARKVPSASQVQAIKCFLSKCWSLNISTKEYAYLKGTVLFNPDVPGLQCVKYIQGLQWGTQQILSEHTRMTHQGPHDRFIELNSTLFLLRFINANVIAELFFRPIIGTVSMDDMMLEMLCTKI

HEK293 = assay: cells; assay type: functional, cell-based; conditions: Homo sapiens
[2] = molecular target: Ras and Rab interactor 1/Tyrosine-protein kinase ABL1 (Homo sapiens, UniProt P00519+Q13671); assay type: functional;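 also: biochemical TR-FRET dose-response test measuring inhibition of binding between Rin1 and Abl proteins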
[3] = Counterscreen for activators of the function of SWI/SNF related, matrix associated, actin dependent regulator of chromatin, subfamily a, member 2 (SMARCA2, BRM): Luminescence-based cell-based high throughput dose response assay to identify non-selective compounds using the VP16 reporter assay.; assay type: functional
[4] = molecular target: SWI/SNF-related matrix-associated actin-dependent regulator of chromatin subfamily A member 2 (Homo sapiens, UniProt P51531); assay: Luminescence-based cell-based high throughput dose response assay to identify activators of the function of SWI/SNF related, matrix associated, actin dependent regulator of chromatin, subfamily a, member 2 (SMARCA2, BRM).; assay type: functional
Melanocortin receptor 4 = Melanocortin receptor 4 (Homo sapiens, UniProt P32245); assay: MC4R antagonist potency on cAMP, dose response, cell-based, TR-FRET, biased antagonists (AID 602298); assay type: functional;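 also: antagonist potency against agonist-stimulated cAMP production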
[5] = nonselective inhibitors of cellular cAMP signaling, dose response, counter-screen for MC4R biased antagonist project, cell-based, TR-FRET cAMP detection (AID 602305); assay type: functional;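 also: U2OS cells stimulated with forskolin near its EC80 as the cAMP inducer; potency is for inhibition of forskolin-stimulated cAMP signaling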
[6] = molecular target: Dual specificity tyrosine-phosphorylation-regulated kinase 1A (Rattus norvegicus, UniProt Q63470); assay type: biochemical, Homo sapiens
[7] = molecular target: 26S proteasome non-ATPase regulatory subunit 14 (Homo sapiens, UniProt O00487); assay: inhibition of proteasome subunit RPN11 – biochemical, fluorescence polarization, uHTS hits, confirmation (AID 602368); assay type: functional
[8] = molecular target: 72 kDa type IV collagenase (Homo sapiens, UniProt P08253); assay: Dose Response validation of uHTS RPN11 inhibitor hits using a MMP-2 Fluorescence assay.; assay type: functional
Prothrombin = Prothrombin (Bos taurus, UniProt P00735); assay: thrombin inhibition, dose response, biochemical, fluorescence polarization, uHTS hits (AID 602369); assay type: functional
[9] = molecular target: Heat shock protein HSP 90-alpha (Homo sapiens, UniProt P07900); assay type: functional, organism-based
[10] = growth suppression of PTEN-null colon cells, dose response, cell-based, HCT116 PTEN knockout (AID 1047); assay type: functional;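 also: HCT116 colon tumor cells with PTEN knocked out; cells exposed to compound for 60 hours before readout; potency for loss of cell viability measured by luminescence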
[11] = growth suppression of beta-catenin-knockout colon cells, dose response, cell-based, HCT116, human colon tumor (AID 1045); assay type: functional;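 also: HCT116 colon tumor cells with beta catenin knocked out; cells exposed to compound for 60 hours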
A-375 = assay: MITF: Counter assay: A375 proliferation Measured in Cell-Based System Using Plate Reader - 2084-03_Inhibitor_Dose_DryPowder_Activity. [Related pubchem assays (depositor defined):AID488944]; assay type: functional; conditions: Homo sapiens
[12] = molecular target: T2, Microphthalmia-associated transcription factor (Homo sapiens, UniProt O75030); assay: TRPM1 promoter luciferase signal decrease, dose response, MITF inhibitor project, cell-based, SK-MEL-5, cherry-picked, set 3 (AID 493073); assay type: functional
T2 sequence (O75030 whole entry): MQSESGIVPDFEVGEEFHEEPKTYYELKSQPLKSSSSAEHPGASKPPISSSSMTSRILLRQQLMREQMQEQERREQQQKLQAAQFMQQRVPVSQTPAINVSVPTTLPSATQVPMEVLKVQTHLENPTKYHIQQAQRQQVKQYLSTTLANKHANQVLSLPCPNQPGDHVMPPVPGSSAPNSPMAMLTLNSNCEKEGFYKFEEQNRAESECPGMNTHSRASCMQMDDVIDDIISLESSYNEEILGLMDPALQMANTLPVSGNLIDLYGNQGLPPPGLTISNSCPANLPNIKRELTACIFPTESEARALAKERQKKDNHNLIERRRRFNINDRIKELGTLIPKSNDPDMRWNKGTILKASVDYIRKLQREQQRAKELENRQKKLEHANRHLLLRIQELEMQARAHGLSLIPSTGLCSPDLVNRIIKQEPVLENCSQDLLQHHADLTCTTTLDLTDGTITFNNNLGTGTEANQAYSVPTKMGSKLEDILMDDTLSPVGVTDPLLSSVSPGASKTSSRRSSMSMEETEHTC

[13] = molecular target: Protein disulfide-isomerase (Homo sapiens, UniProt P07237); assay: PDI inhibitors, insulin aggregation turbidity, dose response, biochemical, absorbance, cherry-picked samples (AID 602350); assay type: functional
[14] = molecular target: T3, High affinity choline transporter 1 (Homo sapiens, UniProt Q9GZV3); assay: CHT inhibitors, dose response, cell-based, 5-point CRC, membrane potential dye (AID 504840); assay type: functional
T3 sequence (Q9GZV3 whole entry): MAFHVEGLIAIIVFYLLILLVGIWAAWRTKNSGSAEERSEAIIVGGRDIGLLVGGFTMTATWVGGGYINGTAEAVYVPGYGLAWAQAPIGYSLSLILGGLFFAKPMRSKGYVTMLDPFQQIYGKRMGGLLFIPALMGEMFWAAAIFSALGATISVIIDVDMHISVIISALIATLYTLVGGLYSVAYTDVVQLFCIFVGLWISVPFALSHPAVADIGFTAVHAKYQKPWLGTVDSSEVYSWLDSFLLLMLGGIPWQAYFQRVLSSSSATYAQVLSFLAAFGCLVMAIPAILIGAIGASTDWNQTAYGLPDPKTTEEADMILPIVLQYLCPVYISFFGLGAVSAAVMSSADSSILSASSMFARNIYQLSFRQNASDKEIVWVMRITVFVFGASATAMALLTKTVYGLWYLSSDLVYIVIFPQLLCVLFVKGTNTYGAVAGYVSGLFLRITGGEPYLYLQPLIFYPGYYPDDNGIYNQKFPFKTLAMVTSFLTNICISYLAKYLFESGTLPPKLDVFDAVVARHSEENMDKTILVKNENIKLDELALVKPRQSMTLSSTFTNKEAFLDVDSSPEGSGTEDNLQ

[15] = HepG2 cell cytotoxicity, dose response, cytotoxicity control for Shn3 inhibitor project, CellTiter-Glo, cherry-picked (AID 624134); assay type: functional, cell-based
[16] = Shn3 3'UTR reporter inhibitors, dose response, cell-based, Clone20 osteoblasts, firefly luciferase, cherry-picked (AID 624132); assay type: functional;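 also: firefly luciferase luminescence from reporter carrying the Shn3 3'UTR in osteoblasts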
Escherichia coli = assay: microbe, parasite or virus in culture
[17] = control 3'UTR Renilla luciferase suppression, dose response, counter-screen for Shn3 inhibitor project, cell-based, Clone20-Shn3RL, cherry-picked (AID 624133); assay type: functional
LIM domain kinase 1 = LIM domain kinase 1 (Homo sapiens, UniProt P53667); assay: Navigating the Kinome. Panel member name: LIMK1; assay type: functional
[18] = molecular target: Serine/threonine-protein kinase Nek2 (Homo sapiens, UniProt P51955); assay type: functional
[19] = molecular target: Serine/threonine-protein kinase Chk1 (Homo sapiens, UniProt O14757); assay type: functional;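 also: measured as one member of a kinome-wide kinase profiling panel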
[20] = molecular target: Tyrosine-protein kinase receptor TYRO3 (Homo sapiens, UniProt Q06418); assay type: functional;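 also: TYRO3 value obtained as one member of a kinome-wide profiling panel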
[21] = molecular target: Dual specificity protein kinase CLK4 (Homo sapiens, UniProt Q9HAZ1); assay type: functional
[22] = molecular target: Proto-oncogene tyrosine-protein kinase receptor Ret (Homo sapiens, UniProt P07949); assay type: functional;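 also: measured within a kinome-wide profiling panel, RET as the panel member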
[23] = molecular target: Tyrosine-protein kinase JAK2 (Homo sapiens, UniProt O60674); assay type: functional;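 also: JAK2 tested as one member of a kinase panel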
[24] = molecular target: Mitogen-activated protein kinase kinase kinase kinase 2 (Homo sapiens, UniProt Q12851); assay type: functional;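 also: measured as one member of a kinome-wide kinase panel, with MAP4K2 as the panel entry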
[25] = molecular target: Dual specificity mitogen-activated protein kinase kinase 1 (Homo sapiens, UniProt Q02750); assay: Navigating the Kinome. Panel member name: MAP2K1; assay type: functional
[26] = molecular target: T4, Rac GTPase-activating protein 1 (Homo sapiens, UniProt Q9H0H5); assay: MgcRacGAP GTPase-activating activity inhibitors, confirmation, biochemical, ADP Hunter fluorescence, primary and confirmatory (AID 624330); assay type: functional
T4 sequence (Q9H0H5 whole entry): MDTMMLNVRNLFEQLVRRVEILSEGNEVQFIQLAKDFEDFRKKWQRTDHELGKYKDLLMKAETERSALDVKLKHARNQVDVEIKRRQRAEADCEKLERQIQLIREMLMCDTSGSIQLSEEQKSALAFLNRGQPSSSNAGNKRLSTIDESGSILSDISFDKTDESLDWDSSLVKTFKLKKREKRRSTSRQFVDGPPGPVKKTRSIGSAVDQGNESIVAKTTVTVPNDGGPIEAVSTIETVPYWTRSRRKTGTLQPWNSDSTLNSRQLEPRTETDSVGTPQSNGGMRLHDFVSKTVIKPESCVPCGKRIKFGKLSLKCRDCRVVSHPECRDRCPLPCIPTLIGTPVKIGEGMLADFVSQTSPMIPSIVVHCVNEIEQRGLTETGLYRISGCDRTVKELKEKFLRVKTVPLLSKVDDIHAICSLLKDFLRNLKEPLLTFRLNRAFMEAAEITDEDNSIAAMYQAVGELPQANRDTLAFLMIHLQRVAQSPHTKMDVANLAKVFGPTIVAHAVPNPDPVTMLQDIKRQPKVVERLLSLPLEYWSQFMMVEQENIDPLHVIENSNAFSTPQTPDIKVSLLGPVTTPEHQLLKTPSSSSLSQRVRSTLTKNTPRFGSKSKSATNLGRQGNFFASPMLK

Aurora kinase A = Aurora kinase A (Homo sapiens, UniProt O14965); assay type: functional;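 also: value from the Navigating the Kinome kinase panel profiling, panel entry STK6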
Aurora kinase B = Aurora kinase B (Homo sapiens, UniProt Q96GD4); assay type: functional
[27] = tested on: Streptococcus sp. 'group A'; assay: growth inhibition of control SK(-) GAS strain, dose response, counter-screen for streptokinase expression inhibitor project, luminescence, kanamycin, BacTiterGlo, confirmation (AID 1900); assay type: functional, organism-based
Streptococcus = assay: Group A Streptococcus viability loss, dose response, counter-screen for streptokinase expression inhibitor project, luminescence, BacTiterGlo (AID 1915); assay type: functional, organism-based;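 also: potency for reduction of bacterial viability or growth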

Melanocortin receptor 4, sequence (P32245 whole entry): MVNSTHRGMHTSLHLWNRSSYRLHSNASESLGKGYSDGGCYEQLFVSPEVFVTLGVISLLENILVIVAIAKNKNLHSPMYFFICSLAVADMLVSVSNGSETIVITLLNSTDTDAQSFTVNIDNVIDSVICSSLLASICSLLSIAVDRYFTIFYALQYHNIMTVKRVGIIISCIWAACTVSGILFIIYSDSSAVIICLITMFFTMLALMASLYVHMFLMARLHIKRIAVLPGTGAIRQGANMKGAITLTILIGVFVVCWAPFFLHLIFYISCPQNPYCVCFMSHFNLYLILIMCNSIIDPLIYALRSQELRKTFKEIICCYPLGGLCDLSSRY
Aurora kinase A, sequence (O14965 whole entry): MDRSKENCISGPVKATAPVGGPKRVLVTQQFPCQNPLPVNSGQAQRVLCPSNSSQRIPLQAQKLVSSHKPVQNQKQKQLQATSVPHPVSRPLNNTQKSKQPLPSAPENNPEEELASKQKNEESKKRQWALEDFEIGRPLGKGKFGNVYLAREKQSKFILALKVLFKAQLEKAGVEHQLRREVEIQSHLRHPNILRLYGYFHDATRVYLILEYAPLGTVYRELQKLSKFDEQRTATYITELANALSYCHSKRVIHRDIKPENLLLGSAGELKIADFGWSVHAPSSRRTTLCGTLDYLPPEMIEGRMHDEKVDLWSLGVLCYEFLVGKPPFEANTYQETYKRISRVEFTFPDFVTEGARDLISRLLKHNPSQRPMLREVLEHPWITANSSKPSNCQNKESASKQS
Dual specificity mitogen-activated protein kinase kinase 1, sequence (Q02750 whole entry): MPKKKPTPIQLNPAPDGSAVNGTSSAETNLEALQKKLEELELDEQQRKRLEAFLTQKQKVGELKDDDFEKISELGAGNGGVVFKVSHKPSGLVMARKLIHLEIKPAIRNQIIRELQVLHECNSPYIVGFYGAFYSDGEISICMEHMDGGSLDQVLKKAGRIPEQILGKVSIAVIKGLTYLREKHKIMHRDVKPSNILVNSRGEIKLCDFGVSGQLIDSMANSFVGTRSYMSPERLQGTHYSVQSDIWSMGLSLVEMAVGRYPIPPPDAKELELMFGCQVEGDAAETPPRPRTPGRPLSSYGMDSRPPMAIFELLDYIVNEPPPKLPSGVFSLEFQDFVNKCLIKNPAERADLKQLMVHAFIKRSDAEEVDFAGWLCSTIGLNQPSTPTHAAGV
Aurora kinase B, sequence (Q96GD4 whole entry): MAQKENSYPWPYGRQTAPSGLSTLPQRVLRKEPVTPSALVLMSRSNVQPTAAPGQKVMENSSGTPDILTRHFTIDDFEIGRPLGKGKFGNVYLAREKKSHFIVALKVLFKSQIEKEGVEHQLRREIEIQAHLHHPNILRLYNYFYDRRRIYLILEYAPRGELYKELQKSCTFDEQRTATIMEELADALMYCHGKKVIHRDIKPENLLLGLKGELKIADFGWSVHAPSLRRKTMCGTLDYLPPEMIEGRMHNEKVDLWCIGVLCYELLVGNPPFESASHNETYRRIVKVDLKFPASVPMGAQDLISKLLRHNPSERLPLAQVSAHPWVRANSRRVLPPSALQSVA
LIM domain kinase 1, sequence (P53667 whole entry, the tested form may be a part): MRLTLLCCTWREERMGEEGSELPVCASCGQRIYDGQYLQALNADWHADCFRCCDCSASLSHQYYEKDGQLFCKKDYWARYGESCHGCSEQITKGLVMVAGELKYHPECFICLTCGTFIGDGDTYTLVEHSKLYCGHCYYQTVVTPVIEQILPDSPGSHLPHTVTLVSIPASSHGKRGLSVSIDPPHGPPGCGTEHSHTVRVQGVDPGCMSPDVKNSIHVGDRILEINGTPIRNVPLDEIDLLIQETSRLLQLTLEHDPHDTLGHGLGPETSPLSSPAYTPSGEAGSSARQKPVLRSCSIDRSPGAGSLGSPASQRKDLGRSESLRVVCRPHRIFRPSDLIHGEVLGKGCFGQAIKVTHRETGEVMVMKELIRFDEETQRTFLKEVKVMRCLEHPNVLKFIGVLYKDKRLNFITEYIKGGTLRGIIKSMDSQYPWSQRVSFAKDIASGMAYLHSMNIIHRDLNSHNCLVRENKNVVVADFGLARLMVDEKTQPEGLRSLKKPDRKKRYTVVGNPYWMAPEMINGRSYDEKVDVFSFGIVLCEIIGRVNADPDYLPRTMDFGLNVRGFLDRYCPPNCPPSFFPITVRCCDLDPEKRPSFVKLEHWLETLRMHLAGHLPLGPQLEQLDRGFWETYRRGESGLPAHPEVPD
26S proteasome non-ATPase regulatory subunit 14, sequence (O00487 whole entry): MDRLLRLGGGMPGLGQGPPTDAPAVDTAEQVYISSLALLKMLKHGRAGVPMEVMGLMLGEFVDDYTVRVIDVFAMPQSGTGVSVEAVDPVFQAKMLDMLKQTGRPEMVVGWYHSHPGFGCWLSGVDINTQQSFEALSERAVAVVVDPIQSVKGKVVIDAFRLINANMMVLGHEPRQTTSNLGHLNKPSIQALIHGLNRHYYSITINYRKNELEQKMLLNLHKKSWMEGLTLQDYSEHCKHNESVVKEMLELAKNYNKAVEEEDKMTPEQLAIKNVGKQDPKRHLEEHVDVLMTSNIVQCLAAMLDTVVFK
Mitogen-activated protein kinase kinase kinase kinase 2, sequence (Q12851 whole entry): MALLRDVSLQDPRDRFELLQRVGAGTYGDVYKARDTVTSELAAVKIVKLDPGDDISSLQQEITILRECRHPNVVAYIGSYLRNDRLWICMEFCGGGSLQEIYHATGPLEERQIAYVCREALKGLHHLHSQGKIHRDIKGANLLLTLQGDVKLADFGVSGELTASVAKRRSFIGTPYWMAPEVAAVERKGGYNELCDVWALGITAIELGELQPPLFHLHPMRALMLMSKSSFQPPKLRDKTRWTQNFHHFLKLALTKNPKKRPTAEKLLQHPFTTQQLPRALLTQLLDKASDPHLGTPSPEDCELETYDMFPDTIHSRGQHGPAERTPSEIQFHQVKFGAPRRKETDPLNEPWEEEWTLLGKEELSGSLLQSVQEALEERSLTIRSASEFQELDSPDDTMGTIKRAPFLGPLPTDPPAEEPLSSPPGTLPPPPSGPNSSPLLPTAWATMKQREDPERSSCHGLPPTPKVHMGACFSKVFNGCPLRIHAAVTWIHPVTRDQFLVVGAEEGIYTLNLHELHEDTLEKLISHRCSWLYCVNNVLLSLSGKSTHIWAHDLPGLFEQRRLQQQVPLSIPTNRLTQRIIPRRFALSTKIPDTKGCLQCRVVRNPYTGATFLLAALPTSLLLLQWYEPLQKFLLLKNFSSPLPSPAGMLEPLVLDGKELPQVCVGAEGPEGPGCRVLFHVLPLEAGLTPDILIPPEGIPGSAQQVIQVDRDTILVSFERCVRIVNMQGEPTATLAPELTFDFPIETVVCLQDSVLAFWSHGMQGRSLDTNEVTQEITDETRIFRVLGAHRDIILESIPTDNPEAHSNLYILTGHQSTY
Serine/threonine-protein kinase Nek2, sequence (P51955 whole entry): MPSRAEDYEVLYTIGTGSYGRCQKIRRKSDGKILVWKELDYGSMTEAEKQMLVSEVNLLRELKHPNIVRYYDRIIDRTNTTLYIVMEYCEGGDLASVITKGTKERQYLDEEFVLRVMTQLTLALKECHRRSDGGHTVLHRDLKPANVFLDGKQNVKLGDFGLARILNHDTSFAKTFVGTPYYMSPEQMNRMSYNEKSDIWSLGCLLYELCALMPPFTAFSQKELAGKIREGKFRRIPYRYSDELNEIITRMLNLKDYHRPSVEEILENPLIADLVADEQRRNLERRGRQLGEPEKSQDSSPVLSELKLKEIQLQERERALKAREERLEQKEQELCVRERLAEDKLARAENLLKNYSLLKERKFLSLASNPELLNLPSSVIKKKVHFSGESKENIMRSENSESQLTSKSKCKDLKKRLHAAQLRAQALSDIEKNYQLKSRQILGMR
Protein disulfide-isomerase, sequence (P07237 whole entry): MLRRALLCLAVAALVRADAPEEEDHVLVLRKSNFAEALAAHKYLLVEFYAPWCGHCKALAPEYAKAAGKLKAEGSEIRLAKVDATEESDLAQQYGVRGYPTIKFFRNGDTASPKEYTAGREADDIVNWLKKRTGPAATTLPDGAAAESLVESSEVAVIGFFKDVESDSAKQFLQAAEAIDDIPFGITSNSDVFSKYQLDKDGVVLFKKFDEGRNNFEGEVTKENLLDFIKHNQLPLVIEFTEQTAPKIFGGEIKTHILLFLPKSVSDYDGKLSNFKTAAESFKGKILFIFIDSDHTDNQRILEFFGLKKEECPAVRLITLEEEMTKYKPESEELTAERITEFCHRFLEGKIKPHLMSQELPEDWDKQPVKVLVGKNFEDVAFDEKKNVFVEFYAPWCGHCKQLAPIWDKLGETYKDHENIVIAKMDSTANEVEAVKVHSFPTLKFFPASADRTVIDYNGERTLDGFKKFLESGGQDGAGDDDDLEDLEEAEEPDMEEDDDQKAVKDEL
Dual specificity protein kinase CLK4, sequence (Q9HAZ1 whole entry): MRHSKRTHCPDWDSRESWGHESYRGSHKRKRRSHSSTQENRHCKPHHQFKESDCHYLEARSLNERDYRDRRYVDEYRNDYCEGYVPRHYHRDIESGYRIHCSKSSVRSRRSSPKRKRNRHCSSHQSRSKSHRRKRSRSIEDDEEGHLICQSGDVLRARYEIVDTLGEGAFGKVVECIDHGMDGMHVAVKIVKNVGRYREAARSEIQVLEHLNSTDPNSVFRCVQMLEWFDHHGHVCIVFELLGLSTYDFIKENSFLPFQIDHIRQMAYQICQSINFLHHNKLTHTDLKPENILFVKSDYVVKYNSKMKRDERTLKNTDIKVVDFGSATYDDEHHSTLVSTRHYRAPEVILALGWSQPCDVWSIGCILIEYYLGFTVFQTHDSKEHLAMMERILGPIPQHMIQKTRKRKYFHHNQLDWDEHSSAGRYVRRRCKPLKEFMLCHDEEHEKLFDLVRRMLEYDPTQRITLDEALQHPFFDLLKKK

Structure (SMILES): Cc1cc(Cl)ccc1Nc1ncccc1C(N)=O
- IC50 [1]: > 67.5 µM (inactive)
- IC50 (HEK293): > 67.5 µM (inactive)

Structure (SMILES): Cc1oc2nc(SCCCC(=O)NCCO)nc(N)c2c1C
- IC50 [2]: 6.46 µM (active)

Structure (SMILES): O=C(C[S+]([O-])c1ccc(C(F)(F)F)cc1[N+](=O)[O-])Oc1ccc(Cl)cc1 (stereo not drawn)
- EC50 [3]: > 91.2 µM (inactive)
- EC50 [4]: > 91.2 µM (inactive)
- IC50 (Melanocortin receptor 4): > 64.6 µM (inactive)
- IC50 [5]: > 64.6 µM (inactive)

Structure (SMILES): O=C(NN1C(=O)/C(=C\c2ccc(O)c([N+](=O)[O-])c2)SC1=S)c1ccccc1Cl
- AC50 [6]: 3.01 µM (active)
- IC50 [7]: 26.8 µM (active)
- IC50 [8]: 31.1 µM (active)
- IC50 (Prothrombin): 62.5 µM (active)
- AC50 [9]: 5.26 µM (active)

Structure (SMILES): COc1ccc(C(CCNC(C)c2ccccc2)c2ccc(F)cc2)cc1 (stereo not drawn)
- EC50 [10]: 11.2 µM (active)
- EC50 [11]: 9.11 µM (active)
- AC50 (A-375): 13.8 µM (active)
- AC50 [12]: 16.6 µM (active)

Structure (SMILES): COc1cccc(CNC(=O)CCNS(=O)(=O)c2cccc3nsnc23)c1
- IC50 [1]: > 67.5 µM (inactive)
- IC50 (HEK293): > 67.5 µM (inactive)

Structure (SMILES): O=C(c1ccco1)N1CCN(Cc2cc(=O)oc3cc(O)ccc23)CC1
- AC50 [13]: 19.5 µM (active)

Structure (SMILES): Cc1ccc(C(=O)NC2CCCC(C)C2C)cc1S(=O)(=O)N1CCCCC1 (stereo not drawn)
- IC50 [14]: 9.55 µM (active)

Structure (SMILES): CCCCCCCN(c1ccccc1)[C@@H]1C[C@H]2CCCC(=O)N3CC[C@@H](C1)[C@@H]23
- AC50 [15]: 46.4 µM (active)
- AC50 [16]: 11.4 µM (active)
- AC50 (Escherichia coli): 13.7 µM (active)
- IC50 (Melanocortin receptor 4): 7.91 µM (active)
- IC50 [5]: 22.6 µM (inactive)
- AC50 [17]: 4.54 µM (active)

Structure (SMILES): COc1cc(-c2ccc(=O)n(Cc3cccc(C)c3)n2)cc(OC)c1OC
- Ki (LIM domain kinase 1): 1 µM (active)
- Ki [18]: 3.16 µM (active)
- Ki [19]: 1 µM (active)
- Ki [20]: 2.51 µM (active)
- Ki [21]: 2 µM (active)

Structure (SMILES): O=C1CN=C(c2ccc(F)cc2)c2cn[nH]c2N1
- Ki [22]: 79.4 µM (active)
- Ki [23]: 100 µM (active)
- Ki [24]: 63.1 µM (active)
- Ki [25]: 79.4 µM (active)

Structure (SMILES): COc1ccc(-c2cnnc(N/N=C/c3ccc(O)c(O)c3)n2)cc1
- AC50 [6]: 0.482 µM (active)
- IC50 [26]: 63.9 µM (active)

Structure (SMILES): Nc1ccc(-c2csc3ccnc(N)c23)cc1
- Ki (Aurora kinase A): 1.26 µM (active)
- Ki (Aurora kinase B): 0.2 µM (active)

Structure (SMILES): COC(=O)N/N=C/c1cc(C)n(-c2ccccc2)c1C
- IC50 [14]: 11.5 µM (active)

Structure (SMILES): CC[C@H]1OC(=O)[C@H](C)[C@@H](O[C@H]2C[C@@](C)(OC)[C@@H](O)[C@H](C)O2)[C@H](C)[C@@H](O[C@@H]2O[C@H](C)C[C@H](N(C)C)[C@H]2O)[C@](C)(O)C[C@@H](C)CN(C)[C@H](C)[C@@H](O)[C@]1(C)O [AZITHROMYCIN]
- AC50 (Escherichia coli): 29.3 µM (active)
- EC50 [27]: < 0.06 µM (active)
- EC50 (Streptococcus): 0.066 µM (active)
